Test results: patent US3975433A, “1-(2,4-Dimethoxy-phenyl)-3-(2-hydroxyethyl)thiourea” (The Dow Chemical Company, priority 1975, dated 1976)

Legend:
Ascaridia galli = experiment: control of Ascaridia galli in chickens (anthelmintic efficacy); assay type: in vivo; settings: infected chickens; for activity in controlling Ascaridia: tested as controls, result in words, dose not separately stated
Method: The compound was evaluated for activity in the control of Ascaridia galli in chickens. The test chickens following infection with Ascaridia are held for at least 30 days to permit all worms to mature. The compound is evaluated for activity in two chickens which are caged together. The compound may be administered orally as a single oral dose or in the feed for four consecutive days. Anthelmintic efficacy of the compound against Ascaridia is determined by comparing the number of ascarids passed in the feces during the first 72 hours post treatment to the number of worms recovered at necropsy.
The following compounds were also tested as controls and found to have no activity in controlling Ascaridia: 1-(4-methoxyphenyl)-3-(2-hydroxyethyl)thiourea; 1-(2,4-dimethylphenyl)-3-(2-hydroxyethyl)thiourea; 1-(4-methylphenyl)-3-(2-hydroxyethyl)thiourea; and 1-(4-methoxy-2-methylphenyl)-3-(2-hydroxyethyl)thiourea.

reserpine-induced ptosis = experiment: counteraction of reserpine-induced ptosis in mice (antidepressant properties); assay type: in vivo; settings: for inhibition of reserpine-induced ptosis: mice, 60 mg/kg (i.p.), comparative trials, result in words
Method: The antidepressant properties of the thiourea employed in the methods of the present invention are determined by measuring their ability to counteract ptosis induced in animals by the intraperitoneal injection of reserpine. Graded doses (from about 2.1 to about 100 mg/kg) of the active compounds of this invention are administered intraperitoneally to groups of five mice each, followed 30 minutes later by an intraperitoneal injection of reserpine in an amont which is known to induce ptosis in mice. Similar groups of control mice are administered only reserpine. Forty-five minutes after the administration of reserpine, the presence or absence of ptosis is noted. The percent inhibition of ptosis is noted and the median effective dose (ED50) of each test ingredient which protected 50% of the test mice from reserpine-induced ptosis was calculated.

Row | Structure (SMILES) | activity in controlling Ascaridia (Ascaridia galli) | other results
1 | Cc1ccc(NC(=S)NCCO)c(C)c1 [1-(2,4-dimethylphenyl)-3-(2-hydroxyethyl)thiourea] | no activity | 
2 | COc1ccccc1NC(=S)NCCO [1-(2-methoxyphenyl)-3-(2-hydroxyethyl)thiourea] |  | inhibition of reserpine-induced ptosis (reserpine-induced ptosis): did not inhibit
3 | COc1ccc(NC(=S)NCCO)cc1OC [1-(3,4-dimethoxyphenyl)-3-(2-hydroxyethyl)thiourea] |  | inhibition of reserpine-induced ptosis (reserpine-induced ptosis): did not inhibit
4 | COc1ccc(NC(=S)NCCO)c(C)c1 [1-(4-methoxy-2-methylphenyl)-3-(2-hydroxyethyl)thiourea] | no activity | 
5 | COc1ccc(NC(=S)NCCO)cc1 [1-(4-methoxyphenyl)-3-(2-hydroxyethyl)thiourea] | no activity | 
6 | Cc1ccc(NC(=S)NCCO)cc1 [1-(4-methylphenyl)-3-(2-hydroxyethyl)thiourea] | no activity | 
7 | COc1ccc(NC(=S)NCCO)c(OC)c1 [Compound 1, 1-(2,4-dimethoxyphenyl)-3-(2-hydroxyethyl)thiourea] |  | activity (number of worms passed in the feces compared to those found at autopsy) (Ascaridia galli; 150 mg/kg, feces during first 72 hours post treatment): 50%
8 | CN(C)CCCN1c2ccccc2CCc2ccccc21 [Imipramine] |  | ED50 (reserpine-induced ptosis; Mus musculus, ip, read-out: ED50 (median effective dose which protected 50% of the test mice from reserpine-induced ptosis)): 15 mg/kg
